Test results from ChEMBL document CHEMBL1145294, “Genotoxic activity of halogenated phenylglycine derivatives” (Bioorg Med Chem Lett, 2006).
Active and inactive are the calls of the source. The rule behind the calls is not given here.

How the values were obtained:
[1] = system: MCF7; experiment: Cytotoxicity against MCF7 cells; format: cell-based; details: human
[2] = system: NCI-H460; experiment: Cytotoxicity against NCI-H460 cells; format: cell-based; details: human
[3] = system: SF-268; experiment: Cytotoxicity against SF268 cells; format: functional, cell-based; details: Homo sapiens
[4] = system: Saccharomyces cerevisiae; experiment: Cytotoxicity against Saccharomyces cerevisiae rad52; format: organism-based; details: in vivo
[5] = system: Saccharomyces cerevisiae; experiment: Cytotoxicity against Saccharomyces cerevisiae rad52-ku80; format: organism-based; details: in vivo
[6] = system: Saccharomyces cerevisiae; experiment: Cytotoxicity against Saccharomyces cerevisiae rad14; format: organism-based; details: in vivo
[7] = system: Saccharomyces cerevisiae; experiment: Cytotoxicity against Saccharomyces cerevisiae mec1-1; format: organism-based; details: in vivo
[8] = system: Saccharomyces cerevisiae; experiment: Cytotoxicity against Saccharomyces cerevisiae rad53-11; format: organism-based; details: in vivo

Compound	Activity [1]	Activity [2]	Activity [3]	Activity [4]	Activity [5]	Activity [6]	Activity [7]	Activity [8]
COC(=O)C(O)c1ccc(OC)c(I)c1 (stereo unspecified)	Not Active	Not Active	inactive					
COc1ccc(C(OC(C)=O)C(=O)O)cc1I (stereo unspecified)	Not Active	Not Active	inactive					
COC(=O)Nc1ccc(C(NC(=O)c2ccccc2)C(=O)O)cc1I (stereo unspecified)	Not Active	Not Active	inactive					
COC(=O)Cc1cc(I)c(OC)c(I)c1	Not Active	Not Active	inactive					
COC(=O)C(NC(=O)c1ccccc1)c1ccc(OC)c(I)c1 (stereo unspecified)	Active	Active	Active	Active	Active	Active	Active	Active
COC(=O)C(NC(=O)c1ccccc1)c1ccc(OC)c(Br)c1 (stereo unspecified)				Active	Active	Active	Active	Active
O=C(NC(C(=O)O)c1ccc(O)c(I)c1)c1ccccc1 (stereo unspecified)	Not Active	Not Active	inactive					
COC(=O)C(OC(C)=O)c1ccc(OC)c(I)c1 (stereo unspecified)	Not Active	Not Active	inactive					
COC(=O)Cc1ccc(OC)c(I)c1	Not Active	Not Active	inactive					
CC(C)(C)[Si](Oc1ccc(C(NC(=O)c2ccccc2)C(=O)O)cc1I)(c1ccccc1)c1ccccc1 (stereo unspecified)	Active	Active	Active					
COc1ccc(C(O)C(=O)O)cc1I (stereo unspecified)	Not Active	Not Active	inactive					
COC(=O)C(Sc1ccccc1)c1ccc(OC)c(I)c1 (stereo unspecified)	Not Active	Not Active	inactive					
COC(=O)C(c1ccc(OC)c(I)c1)N1C(=O)c2ccccc2C1=O (stereo unspecified)	Not Active	Not Active	inactive					
